Assay results: patent US10118934B2 (Wisconsin Alumni Research Foundation, priority 2014, dated 2018)
Converted amounts (≈) assume the structure as drawn. “And” between values parts separate entries of the source, which are not always exact repeats. Equal values may be shown once. “Also recorded” adds a separate entry of the source. Read-outs that look alike come from different tables or passages of the source.

How the values were obtained:
MtUGM [1] = target: T1, MtUGM (Mycobacterium tuberculosis, UniProt P9WIQ1); conditions: compound library screened against MtUGM; cited from earlier work
HEK293 cells = assay: cytotoxicity assay (CellTiter-Glo); type: cell-based
Method: Four thousand HEK 293T cells were added to wells of a sterile 96-well plate in 99 μl DMEM with 10% FBS. The plate was incubated for 24 hours at 37° C. with 5% CO2 to allow cells to attach. Cells were then treated with serially diluted small molecules or a vehicle control. The final DMSO concentration was 1% in each well. After 24 hours of incubation, viability of the treated cells was analyzed using CellTiter-Glo Luminescent Cell Viability Assay (Promega). Viability readings were normalized to DMSO control wells.

AmpC β-lactamase = AmpC β-lactamase (Escherichia coli, UniProt P00811); type: biochemical; conditions: for inhibition of AmpC β-lactamase: 100 μM
Method: (§1) Compounds were tested for inhibition of Malate Dehydrogenase and AmpC β-lactamase as reported. Assays were performed in 50 mM potassium phosphate buffer, pH 7.0 at 25° C. For AmpC the molecules were mixed with buffer and CENTA substrate (50 μM; Tydock Pharma; Modena, Italy) to a final concentration of 1% DMSO (v/v). Reactions were initiated by addition of β-Lactamase (1 nM). Change in absorbance was monitored at 405 nm for 3 minutes. For Malate Dehydrogenase assay (MDH; Sigma Cat# M-7032), the molecule was mixed with buffer and 2 nM final concentration of the enzyme to a final concentration of 1% DMSO (v/v) and were incubated for five minutes. MDH reactions were started by adding substrates: Oxaloacetic acid (20 mM stock in buffer, prepared fresh daily; Sigma Cat# O4126) to a final concentration 200 μM and NADH (20 mM stock in buffer—prepare fresh daily; Sigma Cat# N-4505) to a final concentration 200 μM. Change in absorbance was monitored at […] for 2.5 minutes. Absorbance was monitored on an HP 8453 UV—visible spectrophotometer (Agilent, Technologies, Santa Clara, Calif.). The assays were performed in duplicate in methacrylate disposable cuvettes.

KpUGM [2] = target: T2, KpUGM (Klebsiella pneumoniae, UniProt Q48485); type: biochemical; conditions: for effect of detergent on KpUGM inhibition: presence and absence of 0.025% Tween 80; for Ki: Lineweaver-Burk analysis, competitive inhibition
T2 construct: His-tag; made in house; host or cells: E. coli BL21(DE3)
Method: Anal Biochem, 1996: p. […] J Med Chem, 2002. 45(8): p. 1712-22] we repeated the assay in the presence of detergent (0.025% Tween 80).
(§2) Enzymatic activity of recombinant UGM was monitored using an HPLC-based assay [Wesener et al., 2013; Lee et al. 1996; Zhang, Q. and H.-w. […] J. Amer. Chem. Soc., 2000. 122(38): p. 9065-9070]. Reactions were performed in duplicate at 22° C. in 50 mM NaH2PO4 buffer (pH 7) with 20 nM enzyme and 20 mM fresh sodium dithionite. Small molecules were added from DMSO stocks to a final concentration of 1% DMSO. Concentration of UDP-Galf [Marlow, A. L. and L. L. Kiessling, Improved Chemical Synthesis of UDP-Galactofuranose. Org Lett, 2001. 3(16): p. 2517-2519] was held constant at the Km of the UGM homolog being analyzed, except for generation of Lineweaver-Burk plots. Reaction time and substrate concentration were varied for Lineweaver-Burk analysis, and each condition was tested in triplicate. Quenched reactions were run through a CarboPac PA-100 column (Thermo Scientific) on an Agilent 1260 Infinity HPLC using an isocratic elution of 200 mM ammonium acetate (pH 8) to separate substrate and product peaks.

[3] = dynamic light scattering (DLS) detection of colloidal aggregation; type: physicochemical
Method: To evaluate aggregation by DLS compounds were diluted from concentrated stocks in DMSO into filtered 50 mM potassium phosphate, pH 7.0. The final DMSO concentration was 1%, and compound concentrations were usually 100 μM. Samples were run in duplicates. All measurements were made at room temperature using a DynaPro MS/X (Wyatt Technology) with a 55 mW laser at 826.6 nm. The laser power was 100%, and the detector angle was 90°.

KpUGM [4] = target: T2, KpUGM; assay: biochemical; type: binding; conditions: for Kd: probe displacement in competitive-binding FP assay
Method: A fluorescence polarization assay was used to measure ligand binding to KpUGM [Soltero-Higgin et al. 2004, Carlson et al. 2006] Tumbling of the fluorescein-UDP conjugated probe was measured on a Tecan M1000 microplate reader, exciting with 470 nm light and monitoring emission at 525 nm. Each condition was tested in triplicate in the presence of 220 nM KpUGM and 23.3 nM of the probe. Data was fit with a one-site binding nonlinear regression in GraphPad Prism 6.

CdUGM = target: T3, CdUGM (Corynebacterium diphtheriae, UniProt Q6NER4); assay: HPLC-based UGM activity assay, homolog specificity; type: biochemical, C. diphtheriae; conditions: 100 μM compound
T3 construct: Open reading frame coding for residue 18-404 of CdUGM was amplified; His-tag with TEV cleavage site (N); made in house; host or cells: Escherichia coli ER2523
Method: The specificity of in vitro UGM inhibition was assessed using purified recombinant UGM homologs. MtUGM and C. diptheriae UGM (CdUGM) share about 43% sequence identity with KpUGM, and 76% identity with each other. However, active site residues are highly conserved between the homologs. […] This trend was consistent for other analogs from this series (FIG. 14).
as §2

MtUGM [5] = target: T1, MtUGM; assay: HPLC-based UGM activity assay, homolog specificity; type: biochemical; conditions: 100 μM compound
M. smegmatis [6] = assay: microbroth dilution assay with alamar Blue readout; type: cell-based, Mycobacterium smegmatis; conditions: liquid culture
B. subtilis [7] = assay: broth microdilution, control strain without UGM; type: cell-based; conditions: control strain without UGM ortholog
B. subtilis [8] = assay: disk diffusion assay; conditions: solid media, 100 nmol per disk
Method: (§3) 1-8], and M. smegmatis were grown, the former two species in LB broth and the later in 7H9 Middlebrook media. Cells were diluted to an OD600 of 0.2 in fresh media and spread (100 μL) onto LB agar plates. Following an hour of incubation at 37° C., sterile cloning disks (3.2 mm diameter, Scienceware) impregnated with 100 nmol of compound or 2 μL of DMSO were placed on the surface of the inoculated solid media. Cells were incubated at 37° C. overnight. Plates with M. smegmatis were incubated 3 additional days at room temperature. Zones of inhibition were measured from the outer edge of the cloning disk to the border of cell growth.

B strain E. coli = assay: broth microdilution, control strain without UGM; type: cell-based; conditions: control strain without UGM ortholog
E. coli = assay: disk diffusion assay; type: cell-based; conditions: solid media, tested concentration
Method: J Bacteriol, 1989. 171(3): p. […] Cells were incubated at 37° C. overnight.

[9] = target: T4, Malate Dehydrogenase (MDH) (Thermus thermophilus, UniProt P10584); assay: aggregation counter screen, malate dehydrogenase inhibition; type: biochemical
T4 construct: purchased Sigma M-7032
Method: as §1

M. smegmatis [10] = assay: disk diffusion assay; conditions: solid media, 100 nmol per disk
Method: as §3

T2 sequence (Q48485 24-384): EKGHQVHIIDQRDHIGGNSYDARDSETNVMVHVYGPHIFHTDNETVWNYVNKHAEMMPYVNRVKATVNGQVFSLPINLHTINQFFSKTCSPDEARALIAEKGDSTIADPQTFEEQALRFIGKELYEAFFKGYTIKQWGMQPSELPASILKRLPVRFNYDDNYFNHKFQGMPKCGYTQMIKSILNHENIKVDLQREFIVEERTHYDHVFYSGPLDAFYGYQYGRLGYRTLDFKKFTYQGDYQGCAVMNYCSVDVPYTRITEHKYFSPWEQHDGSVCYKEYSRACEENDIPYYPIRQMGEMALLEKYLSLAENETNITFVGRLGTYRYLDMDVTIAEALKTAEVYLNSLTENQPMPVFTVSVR
T4 sequence (P10584 whole entry): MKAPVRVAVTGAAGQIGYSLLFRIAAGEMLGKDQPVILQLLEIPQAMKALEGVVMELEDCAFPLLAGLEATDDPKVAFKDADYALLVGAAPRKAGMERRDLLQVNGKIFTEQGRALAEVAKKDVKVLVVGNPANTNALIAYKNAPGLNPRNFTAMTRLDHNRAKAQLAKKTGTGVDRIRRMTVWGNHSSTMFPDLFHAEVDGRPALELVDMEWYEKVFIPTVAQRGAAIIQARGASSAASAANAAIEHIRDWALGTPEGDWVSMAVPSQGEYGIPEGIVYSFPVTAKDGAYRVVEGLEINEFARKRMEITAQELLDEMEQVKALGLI
AmpC β-lactamase, sequence (P00811 20-377): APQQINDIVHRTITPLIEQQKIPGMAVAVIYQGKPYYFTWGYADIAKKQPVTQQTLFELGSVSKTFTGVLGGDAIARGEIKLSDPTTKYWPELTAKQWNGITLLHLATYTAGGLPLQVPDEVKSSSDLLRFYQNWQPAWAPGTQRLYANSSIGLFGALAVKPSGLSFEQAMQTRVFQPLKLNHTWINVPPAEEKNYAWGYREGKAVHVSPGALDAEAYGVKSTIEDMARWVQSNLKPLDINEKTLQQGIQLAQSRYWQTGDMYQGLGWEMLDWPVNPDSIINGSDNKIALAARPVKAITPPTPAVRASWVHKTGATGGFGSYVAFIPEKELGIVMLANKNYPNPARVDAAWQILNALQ
T1 sequence (P9WIQ1 whole entry): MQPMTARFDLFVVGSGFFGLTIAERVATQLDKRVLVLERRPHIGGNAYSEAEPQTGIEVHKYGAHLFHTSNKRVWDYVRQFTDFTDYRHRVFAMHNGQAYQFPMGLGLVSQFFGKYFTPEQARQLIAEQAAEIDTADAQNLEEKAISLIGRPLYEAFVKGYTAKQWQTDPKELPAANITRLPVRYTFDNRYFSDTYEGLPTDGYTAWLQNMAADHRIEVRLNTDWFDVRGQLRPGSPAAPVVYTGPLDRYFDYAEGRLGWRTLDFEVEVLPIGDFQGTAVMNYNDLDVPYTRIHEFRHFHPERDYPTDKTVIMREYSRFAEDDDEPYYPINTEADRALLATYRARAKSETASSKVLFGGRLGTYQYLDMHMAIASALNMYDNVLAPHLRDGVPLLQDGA
T3 sequence (Q6NER4 entry or part of it): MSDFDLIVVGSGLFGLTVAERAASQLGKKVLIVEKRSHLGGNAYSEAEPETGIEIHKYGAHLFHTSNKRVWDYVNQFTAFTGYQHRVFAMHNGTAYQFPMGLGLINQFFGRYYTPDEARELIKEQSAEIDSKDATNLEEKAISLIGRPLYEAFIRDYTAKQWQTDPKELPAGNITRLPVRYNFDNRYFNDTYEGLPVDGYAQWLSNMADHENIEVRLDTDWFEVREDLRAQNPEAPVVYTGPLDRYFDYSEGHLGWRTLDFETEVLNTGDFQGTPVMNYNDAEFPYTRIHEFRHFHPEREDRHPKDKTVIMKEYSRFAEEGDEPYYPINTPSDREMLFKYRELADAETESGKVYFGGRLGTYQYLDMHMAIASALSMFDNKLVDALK

## O=C(O)CCC(=O)N1N=C(c2ccccc2)CC1c1cccs1 (stereo not shown) [Compound 3]
MtUGM [1]
  detection as hit in HTS: not detected by HTS

## O=C(O)CC1Sc2nnc(-c3ccco3)n2N=C1c1ccccc1 (stereo not shown) [Compound 6]
HEK293 cells; HEK293 cells
  cellular toxicity: no significant cellular toxicity
AmpC β-lactamase
  inhibition of AmpC β-lactamase: do not display any inhibition
KpUGM [2]; 100 μM compound
  effect of detergent on KpUGM inhibition: insensitive to detergent
KpUGM [2]
  Ki: 78 µM
[3]; 100 μM
  colloidal aggregation by DLS: do not form detectable colloids; also recorded: do not aggregate; also recorded: no sign of colloidal aggregation
KpUGM [4]
  Kd: 62 µM and 43 µM

## C=CCNc1nc(-c2cc(C)n(CCC(=O)O)c2C)cs1 [Compound 10]
AmpC β-lactamase
  inhibition of AmpC β-lactamase: do not display any inhibition
KpUGM [2]; 100 μM compound
  effect of detergent on KpUGM inhibition: insensitive to detergent
[3]; 100 μM
  colloidal aggregation by DLS: do not form detectable colloids; also recorded: no sign of colloidal aggregation
KpUGM [4]
  Kd: 9 µM and 6 µM

## Cc1cc(-c2csc(NC(C)c3ccccc3)n2)c(C)n1CCC(=O)O (stereo not shown) [Compound 14]
KpUGM [2]; in vitro, dose-dependent
  KpUGM inhibition compared with lead compound 10: improved KpUGM inhibition; also recorded: increased dose-dependent KpUGM inhibition
KpUGM [4]; FP assay
  binding compared with compound 10: slightly tighter binding than compound 10
KpUGM [4]
  Kd: 4.5 µM

## O=C(O)CC1Sc2nnc(Cc3ccc(F)cc3)n2N=C1c1ccccc1 (stereo not shown) [Compound 19]
[3]; 100 μM
  colloidal aggregation by DLS: form colloidal aggregates; also recorded: do form colloids
[3]; high concentrations
  colloidal aggregation by DLS: show aggregation
KpUGM [4]
  Kd: 15 µM

## O=C(O)CC1Sc2nnc(-c3cccs3)n2N=C1c1ccc(Cl)cc1 (stereo not shown) [Compound 22]
CdUGM
  inhibition of CdUGM: 38%
KpUGM [2]
  Ki: 7 µM
[3]; 100 μM
  colloidal aggregation by DLS: did not show any aggregation; also recorded: do not aggregate; also recorded: no sign of colloidal aggregation
KpUGM [4]
  Kd: 9 µM and 9.2 µM
MtUGM [5]
  inhibition of MtUGM: 19%
M. smegmatis [6]; tested concentrations
  M. smegmatis growth repression: no M. smegmatis growth repression

## Cc1ccc(C2=Nn3c(COc4ccc(Cl)cc4)nnc3SC2CC(=O)O)cc1 (stereo not shown) [Compound 24]
MtUGM [1]
  detection as hit in HTS: not detected by HTS
[3]; 100 μM
  colloidal aggregation by DLS: form colloidal aggregates; also recorded: do form colloids
[3]; high concentrations
  colloidal aggregation by DLS: show aggregation
KpUGM [4]
  Kd: 9 µM and 9.2 µM

## O=C(O)CC1Sc2nnc(Cc3ccc(Br)cc3)n2N=C1c1ccc(Cl)cc1 (stereo not shown) [Compound 30]
HEK293 cells
  difference between LD50 and MIC for M. smegmatis: 5 fold
HEK293 cells; HEK293 cells
  cellular toxicity: only mildly toxic
HEK293 cells; HEK293 cells, 24 hours
  LD50: ~100 µM
AmpC β-lactamase; high concentrations
  inhibition of AmpC: non-specific inhibition
KpUGM [2]; 50 μM compound
  KpUGM activity in presence of compound: no measurable activity
KpUGM [2]; 100 μM compound
  KpUGM activity in presence of compound: no measurable activity
KpUGM [2]; KpUGM vs MtUGM and CdUGM
  selectivity between UGM homologs: selective for KpUGM over MtUGM and CdUGM
KpUGM [2]
  Ki: 1.1 µM
KpUGM [2]; from Ki values
  potency relative to compound 22 in vitro: about 5 fold
[3]; 10 μM
  colloidal aggregation by DLS: does not aggregate
[3]; 100 μM
  colloidal aggregation by DLS: forms colloidal aggregates; also recorded: do form colloids
[3]; high concentrations
  colloidal aggregation by DLS: show aggregation
B. subtilis [7]
  MIC: 500 µM (≈ 239 µg/mL)
B. subtilis [8]
  zone of growth inhibition: significantly smaller than that observed for M. smegmatis
B strain E. coli
  MIC: > 500 µM
E. coli
  cell-killing in disk diffusion: No cell-killing
KpUGM [4]
  Kd: 4.5 µM and 4.7 µM
[9]; addition of detergent
  effect of detergent on MDH inhibition: fully rescued by the addition of detergent; also recorded: reversible by the addition of detergent
[9]; full dose response curve, no detergent
  IC50: 55.7 µM
[9]; high concentrations
  inhibition of MDH: non-specific inhibition
M. smegmatis [10]
  zone of growth inhibition, comparison within series: outperformed all other compounds of the series
M. smegmatis [6]; 46 hours of growth, alamar blue
  MIC: 20 µM (≈ 9.56 µg/mL)
